According to ChEMBL document CHEMBL5649166, “RIP3 induces apoptosis independent of pronecrotic kinase activity” (Mol Cell, 2014):

Legend:
[1] = biological target: T1, Ephrin type-A receptor 3 (Homo sapiens) (UniProt P29320); assay: Inhibition of human EPHA3 using poly[Glu:Tyr] (4:1) as substrate at 1 uM in presence of 32P-ATP by Hotspot assay relative to control; values are per cent of control
T1 sequence (whole entry): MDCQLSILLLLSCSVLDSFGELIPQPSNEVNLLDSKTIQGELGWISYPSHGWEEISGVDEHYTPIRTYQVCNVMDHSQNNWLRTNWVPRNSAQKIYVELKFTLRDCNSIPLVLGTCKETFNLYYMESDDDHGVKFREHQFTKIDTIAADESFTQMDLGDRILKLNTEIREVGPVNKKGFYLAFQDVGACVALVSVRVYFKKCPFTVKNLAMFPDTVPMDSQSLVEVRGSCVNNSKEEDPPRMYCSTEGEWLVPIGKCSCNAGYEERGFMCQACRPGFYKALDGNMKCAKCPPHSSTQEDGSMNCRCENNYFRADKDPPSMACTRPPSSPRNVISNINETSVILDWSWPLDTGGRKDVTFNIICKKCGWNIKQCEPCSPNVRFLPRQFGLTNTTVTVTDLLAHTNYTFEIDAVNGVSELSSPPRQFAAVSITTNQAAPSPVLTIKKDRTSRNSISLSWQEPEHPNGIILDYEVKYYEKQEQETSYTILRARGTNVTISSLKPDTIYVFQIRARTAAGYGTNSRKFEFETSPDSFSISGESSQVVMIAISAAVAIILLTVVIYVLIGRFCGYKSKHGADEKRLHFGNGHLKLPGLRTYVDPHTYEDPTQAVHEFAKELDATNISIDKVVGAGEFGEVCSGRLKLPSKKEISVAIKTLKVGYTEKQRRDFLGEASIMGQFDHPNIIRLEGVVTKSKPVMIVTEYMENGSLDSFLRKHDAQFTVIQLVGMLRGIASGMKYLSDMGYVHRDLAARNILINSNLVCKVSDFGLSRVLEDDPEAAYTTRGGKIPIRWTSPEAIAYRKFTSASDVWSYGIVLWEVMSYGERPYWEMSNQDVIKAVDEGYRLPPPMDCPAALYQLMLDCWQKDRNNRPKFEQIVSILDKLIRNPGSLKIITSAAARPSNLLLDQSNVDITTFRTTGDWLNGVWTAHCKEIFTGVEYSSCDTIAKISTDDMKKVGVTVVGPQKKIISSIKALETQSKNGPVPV

[2] = biological target: Ribosomal protein S6 kinase beta-2 (Homo sapiens) (UniProt Q9UBS0); assay: Inhibition of human p70S6Kb/RPS6KB2 using KKRNRTLTK as substrate at 1 uM in presence of 32P-ATP by Hotspot assay relative to control; values are per cent of control
Sequence of Ribosomal protein S6 kinase beta-2 (Homo sapiens) (Q9UBS0 whole entry): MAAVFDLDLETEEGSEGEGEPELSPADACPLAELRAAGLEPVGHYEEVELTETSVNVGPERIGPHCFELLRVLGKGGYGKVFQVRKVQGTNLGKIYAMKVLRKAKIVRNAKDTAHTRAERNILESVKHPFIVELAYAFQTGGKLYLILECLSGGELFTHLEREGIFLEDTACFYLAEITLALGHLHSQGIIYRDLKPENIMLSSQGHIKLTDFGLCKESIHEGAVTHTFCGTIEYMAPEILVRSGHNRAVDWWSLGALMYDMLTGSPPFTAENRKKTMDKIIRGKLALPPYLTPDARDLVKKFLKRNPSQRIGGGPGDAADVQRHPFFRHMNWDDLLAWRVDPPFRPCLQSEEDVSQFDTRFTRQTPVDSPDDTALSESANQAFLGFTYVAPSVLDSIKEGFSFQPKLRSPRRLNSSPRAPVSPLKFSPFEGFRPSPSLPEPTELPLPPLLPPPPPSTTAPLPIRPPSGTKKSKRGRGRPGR

[3] = biological target: Serine/threonine-protein kinase pim-3 (Homo sapiens) (UniProt Q86V86); assay: Inhibition of human PIM3 using RSRHSSYPAGT as substrate at 1 uM in presence of 32P-ATP by Hotspot assay relative to control; values are per cent of control
[4] = biological target: STE20/SPS1-related proline-alanine-rich protein kinase (Homo sapiens) (UniProt Q9UEW8); assay: Residual activity of human STK39/STLK3 using myelin basic protein as substrate at 1 uM in presence of 32P-ATP by Hotspot assay relative to control
[5] = biological target: T2, Tyrosine-protein kinase ITK/TSK (Homo sapiens) (UniProt Q08881); assay: Inhibition of human ITK using myelin basic protein as substrate at 1 uM in presence of 32P-ATP by Hotspot assay relative to control; values are per cent of control
T2 sequence (whole entry): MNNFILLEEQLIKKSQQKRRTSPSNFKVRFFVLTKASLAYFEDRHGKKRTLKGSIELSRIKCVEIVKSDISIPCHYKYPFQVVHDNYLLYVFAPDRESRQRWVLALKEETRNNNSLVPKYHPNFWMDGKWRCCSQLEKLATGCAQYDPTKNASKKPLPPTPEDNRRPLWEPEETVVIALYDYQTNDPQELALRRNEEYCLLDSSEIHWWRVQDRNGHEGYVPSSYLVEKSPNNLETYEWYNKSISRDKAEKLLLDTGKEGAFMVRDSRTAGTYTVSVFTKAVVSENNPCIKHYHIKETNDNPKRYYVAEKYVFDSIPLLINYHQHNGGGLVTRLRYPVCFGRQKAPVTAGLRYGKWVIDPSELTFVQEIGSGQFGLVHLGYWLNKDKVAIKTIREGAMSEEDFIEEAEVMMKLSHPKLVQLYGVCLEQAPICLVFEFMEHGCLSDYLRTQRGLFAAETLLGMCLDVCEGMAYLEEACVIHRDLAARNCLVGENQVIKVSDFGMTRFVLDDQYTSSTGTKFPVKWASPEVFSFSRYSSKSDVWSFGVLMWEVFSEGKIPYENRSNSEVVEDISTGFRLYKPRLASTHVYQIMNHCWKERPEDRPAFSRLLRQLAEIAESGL

[6] = biological target: Serine/threonine-protein kinase 16 (Homo sapiens) (UniProt O75716); assay: Inhibition of human STK16 using myelin basic protein as substrate at 1 uM in presence of 32P-ATP by Hotspot assay relative to control; values are per cent of control
Sequence of Serine/threonine-protein kinase 16 (Homo sapiens) (O75716 whole entry): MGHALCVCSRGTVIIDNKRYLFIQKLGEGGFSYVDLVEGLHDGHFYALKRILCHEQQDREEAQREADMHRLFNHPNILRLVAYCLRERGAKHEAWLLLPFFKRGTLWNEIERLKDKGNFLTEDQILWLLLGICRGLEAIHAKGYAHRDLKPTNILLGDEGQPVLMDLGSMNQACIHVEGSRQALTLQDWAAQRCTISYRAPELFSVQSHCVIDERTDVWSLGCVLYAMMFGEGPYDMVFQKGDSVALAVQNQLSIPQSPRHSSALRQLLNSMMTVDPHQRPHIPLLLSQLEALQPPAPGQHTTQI

[7] = biological target: Vascular endothelial growth factor receptor 2 (Homo sapiens) (UniProt P35968); assay: Inhibition of human KDR/VEGFR2 using poly[Glu:Tyr] (4:1) as substrate at 1 uM in presence of 32P-ATP by Hotspot assay relative to control; values are per cent of control
Sequence of Vascular endothelial growth factor receptor 2 (Homo sapiens) (P35968 whole entry): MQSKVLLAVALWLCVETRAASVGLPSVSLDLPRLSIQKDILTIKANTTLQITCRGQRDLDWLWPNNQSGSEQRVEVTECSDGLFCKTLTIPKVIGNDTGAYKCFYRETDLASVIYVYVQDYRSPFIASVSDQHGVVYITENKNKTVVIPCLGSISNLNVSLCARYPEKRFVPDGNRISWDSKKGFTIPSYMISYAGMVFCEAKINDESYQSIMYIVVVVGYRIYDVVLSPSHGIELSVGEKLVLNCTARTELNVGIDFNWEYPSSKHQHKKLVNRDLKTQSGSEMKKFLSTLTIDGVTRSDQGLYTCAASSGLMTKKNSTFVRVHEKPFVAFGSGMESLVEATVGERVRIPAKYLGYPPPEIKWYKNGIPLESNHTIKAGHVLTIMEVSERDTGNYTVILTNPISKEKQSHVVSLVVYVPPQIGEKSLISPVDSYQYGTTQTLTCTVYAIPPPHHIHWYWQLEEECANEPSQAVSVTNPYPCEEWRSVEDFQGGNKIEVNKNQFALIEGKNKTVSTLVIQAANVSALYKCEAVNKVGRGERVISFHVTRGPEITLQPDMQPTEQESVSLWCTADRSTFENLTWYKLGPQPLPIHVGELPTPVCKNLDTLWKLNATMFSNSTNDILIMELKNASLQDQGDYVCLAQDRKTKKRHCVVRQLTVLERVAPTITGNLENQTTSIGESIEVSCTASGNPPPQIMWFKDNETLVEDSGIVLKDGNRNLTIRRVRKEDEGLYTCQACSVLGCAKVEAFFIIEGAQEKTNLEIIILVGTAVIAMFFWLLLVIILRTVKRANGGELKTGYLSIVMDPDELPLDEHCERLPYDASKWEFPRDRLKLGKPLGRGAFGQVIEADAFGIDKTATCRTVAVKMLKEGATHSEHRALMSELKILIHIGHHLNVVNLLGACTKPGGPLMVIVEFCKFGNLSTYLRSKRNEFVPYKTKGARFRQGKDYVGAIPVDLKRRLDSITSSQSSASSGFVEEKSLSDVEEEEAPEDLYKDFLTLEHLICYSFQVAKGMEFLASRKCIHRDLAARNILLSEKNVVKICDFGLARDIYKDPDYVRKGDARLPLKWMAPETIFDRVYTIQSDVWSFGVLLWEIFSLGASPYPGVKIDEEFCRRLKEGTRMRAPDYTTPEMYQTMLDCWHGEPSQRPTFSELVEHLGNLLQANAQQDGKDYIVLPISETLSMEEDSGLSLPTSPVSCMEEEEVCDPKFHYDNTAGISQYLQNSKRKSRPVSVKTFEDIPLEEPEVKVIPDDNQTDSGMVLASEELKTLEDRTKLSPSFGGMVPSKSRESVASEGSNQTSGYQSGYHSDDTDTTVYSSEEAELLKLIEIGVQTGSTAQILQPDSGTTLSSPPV

[8] = biological target: Tyrosine-protein kinase Lyn (Homo sapiens) (UniProt P07948); assay: Inhibition of human LYN B using poly[Glu:Tyr] (4:1) as substrate at 1 uM in presence of 32P-ATP by Hotspot assay relative to control; values are per cent of control
Sequence of Tyrosine-protein kinase Lyn (Homo sapiens) (P07948 2-512 limits assumed): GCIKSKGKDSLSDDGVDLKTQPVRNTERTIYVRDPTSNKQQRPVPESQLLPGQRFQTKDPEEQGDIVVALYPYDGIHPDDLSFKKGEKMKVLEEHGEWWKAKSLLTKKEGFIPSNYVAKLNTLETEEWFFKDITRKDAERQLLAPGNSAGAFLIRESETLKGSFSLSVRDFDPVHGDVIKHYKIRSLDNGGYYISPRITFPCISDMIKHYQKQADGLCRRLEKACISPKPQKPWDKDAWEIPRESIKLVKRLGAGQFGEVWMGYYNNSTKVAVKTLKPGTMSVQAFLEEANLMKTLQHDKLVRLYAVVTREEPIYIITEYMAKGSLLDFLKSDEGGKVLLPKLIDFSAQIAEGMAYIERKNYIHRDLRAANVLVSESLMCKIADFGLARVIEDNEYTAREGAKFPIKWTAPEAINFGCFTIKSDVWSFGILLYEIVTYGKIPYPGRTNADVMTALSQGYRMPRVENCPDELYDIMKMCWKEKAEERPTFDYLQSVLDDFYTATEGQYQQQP

SMILES | residual activity [1] | residual activity [2] | residual activity [3] | residual activity [4] | residual activity [5] | residual activity [6] | residual activity [7] | residual activity [8]
CC(C)S(=O)(=O)c1ccc2nccc(Nc3ccc4scnc4c3)c2c1 | 92% | 92.8% | 94.2% | 94.9% | 104% | 98.8% | 17.4% | 74.6%
Cc1cc(-c2cnc(N)c3c(-c4ccc5scnc5c4)csc23)n(C)n1 | 80% | 95.1% | 99.5% | 108% | 98.3% | 97.6% | 59.8% | 14%
CNC(=O)c1ccc2c(c1)ncn2-c1ccc(CC(=O)OC(C)(C)C)cc1 | 82.7% | 92.3% | 99.9% | 103% | 99% | 85.4% | 78.7% | 89.2%
